Test results taken from US8911998B2, “Methods for identifying fragile histidine triad (FHIT) interaction and uses thereof” (priority 2007, dated 2014).
Peptide text beside a SMILES is read from it. * marks the point of attachment. Cbz = O=C(OCc1ccccc1)*

Experiments:
[1] = tested on: H1299 D1 cells; test: Flow cytometry (propidium iodide) of PonA-induced Fhit-expressing cells; assay type: cell-based; settings: for sub-G1 population: 48 h
Description: (§8) FIG. 4E, FACS analysis of D1 and E1 cell cycle kinetics at 48 h after oxidative stress treatment. Cells were treated with PonA for 48 h and then with increasing concentrations of H2O2 (0.25 and 0.5 mM) for 4 h. Analysis was at 48 h after H2O2 treatment. All experiments were performed twice in triplicate.
(§9) FIG. 6C and FIG. 6D, the graphs show representative results of flow cytometry analyses of E1 and D1 cells. Cells were treated with PonA for 48 h and then with paclitaxel (50-500 ng/ml) (FIG. 6C) or cisplatin (0.05-0.2 mM) (FIG. 6D). Each data point was measured in triplicate at 24, 48, and 72 h (data shown for 48 h).
(§10) PonA-induced H1299 D1 and E1 cells were treated with 0.25 and 0.5 mM H2O2 or with chemotherapeutic drugs and incubated for varying times, as indicated in the text and figures. For both experiments the cells were collected, washed with phosphate-buffered saline, and resuspended in cold 70% ethanol. For analysis, cells were spun down, washed in phosphate-buffered saline, and suspended in 0.1 mg/ml propidium iodide/Triton X-100 staining solution (0.1% Triton X-100, 0.2 mg/ml DNase-free RNase A) for 30 min at room temperature and analyzed by flow cytometry.

[2] = tested on: H1299 E1 cells; test: ROS assessment by hydroethidine FACS, control cells; assay type: cell-based; settings: 5 μM PonA 48 h
Description: (§1) FIG. 4B, FACS analysis for ROS assessment by the fluorescence produced from the oxidation of hydroethidine in D1 and E1 cells; 48 h after PonA treatment, cells were treated for 5 h with 0.5 and 1.0 mM H2O2 and oxidative stress was measured; % positive refers to the fraction of fluorescent cells, indicating ROS. These experiments were repeated three times with similar results.
(§2) A similar experiment was performed with p53 and Fhit negative lung cancer-derived H1299 D1 and E1 clones carrying PonA-inducible FHIT and empty vector expression plasmids, respectively; the cells were treated with 5 μM PonA and at 48 h treated with 0.5 and 1.0 mM H2O2; the % ROS-positive cells was higher in Fhit-positive D1 cells than in E1 control cells (20 versus 3.5% at 0.5 mM H2O2, and 78 versus 25% at 1.0 mM H2O2, respectively) (FIG. 4B).
(§3) Assessment of Intracellular Reactive Oxygen Species (ROS)—Intracellular superoxide was measured through ethidium fluorescence as a result of oxidation by hydroethidine (dihydroethidium-HE; Molecular Probes). […] Fluorescence was measured by flow cytometry. […] DCF fluorescence was measured by flow cytometry on a FAC-Scan flow cytometer and fluorescence microscopy.

[3] = tested on: A549 cells (empty vector); test: Intracellular superoxide (ROS) by hydroethidine FACS, empty vector-transfected cells; assay type: cell-based, human
Description: (§4) FIG. 4A, fluorescence-activated cell sorter (FACS) analysis for ROS assessment in A549 cells 48 h after transfection with FHIT plasmid, with and without a 5-h H2O2 treatment. Empty vector-transfected cells served as control. Intracellular superoxide was determined according to the fluorescence of ethidium as a result of oxidation of hydroethidine by O2. M2 refers to the fraction of ROS positive cells.
(§5) The inventors herein then investigated determine whether ROS production could be involved in Fhit-mediated apoptosis. […] The inventors examined ROS production in A549 cells, with and without H2O2 treatment, after transient transfection with the FHIT expression plasmid. Intracellular superoxide was assessed by measuring ethidium fluorescence, as a result of oxidation of hydroethydine by superoxide. Intracellular superoxide was measured 5 h after stimulation with increasing concentrations of H2O2.
(§6) Assessment of Intracellular Reactive Oxygen Species (ROS)—Intracellular superoxide was measured through ethidium fluorescence as a result of oxidation by hydroethidine (dihydroethidium-HE; Molecular Probes). MNK74 stably Fhit expressing cells, A549 cells transiently expressing Fhit, and H1299 inducible Fhit expressing cells were treated with 0.5, 1.0, 2.0, and 4.0 mM H2O2 at 37° C.; 4 h later, hydroethidine (10 μM) was added to cells and incubated for 15 min at 37° C. Fluorescence was measured by flow cytometry. Dichlorofluorescein diacetate (DCFH-DA) (Molecular Probes) was used in D1 cells expressing induced Fhit, stressed with H2O2 (0.1 to 1.0 mM), treated with 10 μM DCFH-DA, and incubated for 1 h at 37° C. DCF fluorescence was measured by flow cytometry on a FAC-Scan flow cytometer and fluorescence microscopy.

[4] = tested on: H1299 E1 cells; test: Flow cytometry (propidium iodide) of PonA-treated Fhit-negative control cells; assay type: cell-based; settings: for sub-G1 population: 48 h
Description: as §8, §9, §10

[5] = tested on: H1299/D1 cells; test: Colony formation assay; assay type: cell-based; settings: Fhit-expressing cells, 0.25 mM or higher H2O2, 5-h treatment
Description: FIG. 4F, colony formation assay of H1299/D1 and H1299/E1 cells after […] PonA stimulation and a 5-h H2O2 treatment at the indicated concentrations.

[6] = tested on: MKN74A116 cells; test: ROS assessment in gastric cancer cells expressing exogenous Fhit; assay type: cell-based, human; settings: Fhit-expressing MKN74 cells, 2 mM H2O2, 5 hr
Description: FIG. 10. TABLE 2, Fhit induces generation of ROS in MKN74 gastric cancer cells. ROS assessment was performed with MKN74A116, a human gastric cancer cell line carrying a p53 mutant allele and expressing exogenous Fhit; Fhit-negative MKN74E4 cells were used as a control. To induce ROS generation, we treated MKN74 cells for 5 hr with 0.5, 1.0 and 2.0 mM H2O2. […] Numbers report the average of four experiments ±S.E.
as §6

[7] = tested on: H1299 D1 cells; test: ROS assessment by hydroethidine FACS, Fhit-positive cells; assay type: cell-based; settings: 5 μM PonA 48 h
Description: as §1, §2, §3

[8] = tested on: H1299 D1 and E1 cells; test: MTS cell viability assay, D1 compared with E1 cells; settings: for sensitivity of D1 cells relative to E1 cells (MTS cell viability): after induction of Fhit expression, paclitaxel 50-500 ng/ml or cisplatin 0.05-0.2 mM, 24 or 48 h
Description: FIG. 4D, MTS cell viability assays were performed on E1 and D1 cells. Cells were treated with PonA for 48 h and then with increasing concentrations of H2O2 (0.125, 0.25, and 0.5 mM) for 4 h. Analysis was at 24 h after H2O2 treatment. Columns report the average of four experiments ±S.E. Each point was measured in quadruplicate and standard deviation calculated; p<0.05 was considered significant.
MTS assays performed on E1 and D1 cells. Cells were treated with PonA for 48 h and then treated with paclitaxel (50-500 ng/ml) (FIG. 6A) or cisplatin (0.05-0.2 mM) (FIG. 6B) for 24 or 48 h.
Chemotherapeutic Drug Treatment—Paclitaxel (Sigma) was dissolved in DMSO as a 10 mmol/liter stock solution and stored at −80° C. Cisplatin (Sigma) was dissolved in water and freshly prepared before use. H1299 D1 and E1 cells were seeded (1×10^4 cells/well) in 96-well culture plates, PonA-induced, and after 24 h treated with paclitaxel (50, 100, and 500 ng/ml) or cisplatin (0.05, 0.1, and 0.2 mM). H1299 D1 and E1 cells PonA-induced were incubated for 24, 48, and 72 h and assessed for viability with an MTS kit (Cell Titer 96® Aqueous MTS kit, Upstate Biotechnology, Lake Placid, N.Y.), as recommended by the manufacturer.

[9] = tested on: A549 cells transiently expressing Fhit; test: Intracellular superoxide (ROS) by hydroethidine FACS, FHIT plasmid-transfected cells; assay type: cell-based, human
Description: as §4, §5, §6

[10] = tested on: Fdxr in D1 and E1 cells; test: Immunoblot of Fdxr protein level after proteasome inhibition; assay type: cell-based; settings: 4 h after MG132 treatment (25 μA)
Description: FIG. 5B, immunoblot analysis of Fdxr expression in D1 and E1 cells after a 4-h treatment with 25 μA MG132, a proteasome inhibitor.
(§7) Western Blot Analysis—Immunoblot analyses were performed as described (13) using monoclonal anti-pentaHis (Qiagen); rabbit polyclonal anti-Fhit (Zymed Laboratories Inc.); rabbit polyclonal antisera against GFP, Hsp60, Hsp10, and cytochrome c (Santa Cruz Biotechnology); rabbit polyclonal anti-Fdxr (Abcam); monoclonal anti-CoxIV (Molecular Probes); anti-V5 (Sigma); anti-Parp1 (Santa Cruz Biotechnology); and anti-caspase 3 (Cell Signaling). Protein levels were normalized relative to β-actin or/and GAPDH^3 level, detected with appropriate antisera (Santa Cruz Biotechnology).

[11] = tested on: PonA-induced D1 cells; test: Immunoblot of caspase 3 and Parp1 cleavage; assay type: cell-based; settings: 48 h; paclitaxel 50 and 100 ng/ml, cisplatin 0.05 and 0.1 mM; compared with untreated cells
Description: FIG. 6E, caspase 3 and Parp1 cleavage: immunoblot analyses, using Fhit, caspase 3, and Parp1 antisera, of total cell lysates from PonA-induced D1 cells after 48 h of treatment with paclitaxel (50 and 100 ng/ml) or cisplatin (0.05 and 0.1 mM). GAPDH served as loading control.
At 24 and 72 h (data not shown) increased sub-G1 populations in D1 compared with E1 cells were also detected. To determine whether the sub-G1 fractions of D1 cells represented apoptotic cells, lysates were prepared from drug-treated cells at 48 h and immunoblot analysis performed for caspase 3 and Parp1 cleavage (FIG. […]).
as §7

OO [H2O2]
G2/M arrest ([1]; 48 h after 0.25 mM H2O2): 45.5% | G2/M arrest ([1]; 48 h after 0.5 mM H2O2): 49.5% | % ROS-positive cells ([2]; 0.5 mM H2O2): 3.5% | % ROS-positive cells ([2]; 1.0 mM H2O2): 25% | ROS generation (fraction of ROS positive cells) ([3]; empty vector A549, 0.5 mM H2O2, 5 h): 5.4% | ROS generation (fraction of ROS positive cells) ([3]; empty vector A549, 1.0 mM H2O2, 5 h): 7.7% | toxicity to cells ([3]; non-expressing A549, 2 mM H2O2): not to non-expressing cells | G2/M arrest ([4]; 48 h after 0.25 mM H2O2): 27.5% | G2/M arrest ([4]; 48 h after 0.5 mM H2O2): 29% | colony formation [5]: No colonies were detected | toxicity to cells [6]: toxicity was observed | % ROS-positive cells ([7]; 0.5 mM H2O2): 20% | % ROS-positive cells ([7]; 1.0 mM H2O2): 78% | cell viability (MTS cytotoxicity assay) ([8]; 24 h after H2O2 treatment (0.125, 0.25, 0.5 mM, 4 h)): reduced cell viability or growth arrest in both E1 and D1 cells, but this phenotype was more pronounced in D1 cells | ROS generation (fraction of ROS positive cells) ([9]; FHIT-transfected A549, 0.5 mM H2O2, 5 h): 16.7% | ROS generation (fraction of ROS positive cells) ([9]; FHIT-transfected A549, 1.0 mM H2O2, 5 h): 18.8% | toxicity to cells ([9]; Fhit-expressing A549, 2 mM H2O2): toxic

CC(C)C[C@@H](C=O)NC(=O)[C@H](CC(C)C)NC(=O)[C@H](CC(C)C)NC(=O)OCc1ccccc1 [MG132] (Cbz-Leu-Leu-Leu-aldehyde)
Fdxr protein level in D1 cells compared with E1 cells [10]: significant increase

N.N.[Cl][Pt][Cl] [cisplatin, Cisplatin]
sub-G1 population ([1]; cisplatin 0.05 mM): 5% | sub-G1 population ([1]; cisplatin 0.1 mM): 16.2% | sub-G1 population ([1]; cisplatin 0.2 mM): 30% | sub-G1 population ([4]; cisplatin 0.05 mM): 2.3% | sub-G1 population ([4]; cisplatin 0.1 mM): 7% | sub-G1 population ([4]; cisplatin 0.2 mM): 14.6% | sensitivity of D1 cells relative to E1 cells (MTS cell viability) [8]: more sensitive | activated caspase 3 and related Parp1 cleavage [11]: observed

CC(=O)O[C@H]1C(=O)[C@@]2(C)[C@H]([C@H](OC(=O)c3ccccc3)[C@]3(O)C[C@H](OC(=O)[C@H](O)[C@@H](NC(=O)c4ccccc4)c4ccccc4)C(C)=C1C3(C)C)[C@]1(OC(C)=O)CO[C@@H]1C[C@@H]2O [paclitaxel, Paclitaxel]
sub-G1 population ([1]; paclitaxel 50 ng/ml): 9.6% | sub-G1 population ([1]; paclitaxel 100 ng/ml): 36% | sub-G1 population ([1]; paclitaxel 500 ng/ml): 40% | sub-G1 population ([4]; paclitaxel 50 ng/ml): 4% | sub-G1 population ([4]; paclitaxel 100 ng/ml): 16.7% | sub-G1 population ([4]; paclitaxel 500 ng/ml): 30% | sensitivity of D1 cells relative to E1 cells (MTS cell viability) [8]: more sensitive | activated caspase 3 and related Parp1 cleavage [11]: observed
